System: OB-R
Experiment: LIF-R expression by rabbit endometrial cells (immunocytochemistry, Western blot)
Assay type: cell-based
Conditions: leptin 3 nM; for effect on leptin up-regulation of LIF-R expression: rESC (immunocytochemistry) and rEEC (Western blot), LPA-2 30 and 120 nM; for LIF-R expression after leptin: rESC and rEEC
Experimental: Rabbit endometrial cells (5×10^5 cells/well) were cultured for 5-9 days in DMEM-MCDB105 (3:1) medium containing 10% fetal bovine serum (FBS), 5 μg/ml insulin, 1% amphopthericin B, 100 μg/ml streptomycin and 100 U/ml penicillin until confluent layers were obtained. The cells were washed twice with 100 mM phosphate saline buffer (PBS) −2% BSA (w/v), pH 7.2 and cultured for an additional 2 days in the same medium but without FBS (basal medium). This procedure was performed to reduce any effects of cytokines from FBS on the phosphorylation rate of Stat3 as well as the expression of other cytokines and their receptors. Cells were washed as described before and cultured in basal medium containing leptin (0-10 nM), OB-R antibody (1-20 μg/ml) and/or LPA-2 peptides (0-300 nM). Cultures were stopped at 24 h and the cells were used for immunocytochemistry, binding studies and western blot analysis. The conditioned media were collected, lyophilized and stored at −80° C. for ELISA determinations. Duplicate wells were run for each treatment and the experiments repeated at least three times with different cell preparations from different rabbits. Controls were the same cellular preparations cultured in basal medium containing non-specific goat IgGs and LPA-2Sc.
The rabbit endometrial cells were cultured as described above in duplicate on 8-well glass-bottom culture plates (Nalgene Nunc International, Naperville, Ill.) and fixed with methanol at −20° C. for 20 min for immunocytochemical studies. All the antibodies tested were diluted in PBS-2% BSA (w/v; buffer A).
Anti IL-1R tl (1 μg/ml), anti LIF-R (2 μg/ml), anti vimentin (1:50), anti cytokeratin (1:50) and anti p-Stat3 (1 μg/ml) antibodies were used to assess the expression of the respective antigens by rEEC and rESC cultures. After incubation with primary antibodies the cells were incubated with a streptavidin-biotin-alkaline phosphatase system according to the manufacturer directions (Vectastain, ABC-AP kit, Vector Laboratories, Burlingame, Calif.) and counter-stained with hematoxylin (Dako). Negative controls included cell preparations in which the primary antibodies were substituted by irrelevant species matched IgGs.
After culture in the presence of leptin, LPAs or antibodies, the endometrial cells were washed with ice-cold PBS and lysed by homogenization on ice with lysis buffer [[…] Tris, pH 7.4, containing […] NaCl, 2 mM EDTA, 10% glycerol, 50 mM β-glycerophosphate, […] NaF, 1% Nonidet P-40, 2 mM phenyl-methylsulfonyl fluoride, 2 mM sodium orthovanadate, 100 μM antipain, 0.1 mg/ml trypsin inhibitor and protease cocktail inhibitor 1:50 (Sigma)]. […] Protein concentrations were determined using the Bradford protein assay (BioRad Laboratories Inc., Hercules, Calif.). […]

| Substance | effect on leptin up-regulation of LIF-R expression | LIF-R expression after leptin | LIF-R expression after leptin (listed as Leptin) |
| --- | --- | --- | --- |
| SRNVIQISNDLENLRDLLHVLAFSKS [LPA-2, 26 amino acid peptide, residues 70-95 of helix III of the human leptin molecule; leptin peptide antagonist] | totally inhibited the leptin effect on LIF-R expression | – | – |
| VAEVLNRSDLIQRISFSLDLNNSKLH [LPA-2Sc, scrambled version of LPA-2, negative control, reference compound] | did not prevent the leptin up-regulation of LIF-R | – | – |
| leptin: human recombinant leptin (R&D Systems), OB-R ligand used as stimulus | – | up-regulates the expression of LIF-R | significantly increases the expression of LIF-R |
